US6410480B1, “Herbicidally active 3-hydroxy-4-aryl-5-oxopyrazoline derivatives” (Syngenta Crop Protection, Inc., priority 1998, dated 2002)

Legend:
Assay type in all cases: in vivo
[1] = test system: Lolium; experiment: Example B4: post-emergence herbicidal action of compounds of the invention; set-up: key: 1=complete damage; 9=no effect; Ratings of 1 to 4 (in particular 1 to 3) mean a good to very good herbicidal action; conditions: 3- to 6-leaf stage, 250 g of active substance/ha, 3 weeks after application, scale 1-9
Experimental: (§1) Monocotyledonous and dicotyledonous weeds are grown in standard soil in plastic pots under greenhouse conditions. The test substances are applied at the 3- to 6-leaf stage of the test plants. The test substances are applied (500 l of water/ha) as an aqueous suspension (prepared using a 25% wettable powder (Example F3, b)) or as an emulsion (prepared using a 25% emulsion concentrate (Example F1, c)) at an application rate of 250 g of active substance/ha. 3 weeks after the application, evaluation is carried out using a nine-level scale of ratings (1=complete damage, 9=no effect). Ratings of 1 to 4 (in particular 1 to 3) mean a good to very good herbicidal action. Test plants: Avena (Ave), Lolium (Lol), Setaria (Set).

[2] = test system: Setaria; experiment: as above; set-up: key: 1=complete damage; 9=no effect; Ratings of 1 to 4 (in particular 1 to 3) mean a good to very good herbicidal action; conditions: 3- to 6-leaf stage, 250 g of active substance/ha, 3 weeks after application, scale 1-9
Experimental: as §1

[3] = test system: Avena; experiment: as above; set-up: key: 1=complete damage; 9=no effect; Ratings of 1 to 4 (in particular 1 to 3) mean a good to very good herbicidal action; conditions: 3- to 6-leaf stage, 250 g of active substance/ha, 3 weeks after application, scale 1-9
Experimental: as §1

[4] = test system: Lolium; experiment: Example B2: post-emergence herbicidal action, comparison with prior art; set-up: key: 1=complete damage; 9=no effect; Ratings of 1 to 4 (in particular 1 to 3) mean a good to very good herbicidal action; conditions: 3- to 6-leaf stage, 500 g of ai/ha, 3 weeks after application, scale 1-9
Experimental: as §1, with “500” for “250”, “plants: Alopecurus (Alo),” for “plants:”, “(Set), Panicum (Pan), Sorghum (Sor), Digitaria (Dig), Echinocloa (Ech) and Brachiaria (Bra).” for “(Set).”

[5] = test system: Brachiaria; experiment: as above; set-up: key: 1=complete damage; 9=no effect; Ratings of 1 to 4 (in particular 1 to 3) mean a good to very good herbicidal action; conditions: 3- to 6-leaf stage, 500 g of ai/ha, 3 weeks after application, scale 1-9
Experimental: as §1, with “500” for “250”, “plants: Alopecurus (Alo),” for “plants:”, “(Set), Panicum (Pan), Sorghum (Sor), Digitaria (Dig), Echinocloa (Ech) and Brachiaria (Bra).” for “(Set).”

[6] = test system: Panicum; experiment: as above; set-up: key: 1=complete damage; 9=no effect; Ratings of 1 to 4 (in particular 1 to 3) mean a good to very good herbicidal action; conditions: 3- to 6-leaf stage, 500 g of ai/ha, 3 weeks after application, scale 1-9
Experimental: as §1, with “500” for “250”, “plants: Alopecurus (Alo),” for “plants:”, “(Set), Panicum (Pan), Sorghum (Sor), Digitaria (Dig), Echinocloa (Ech) and Brachiaria (Bra).” for “(Set).”

[7] = test system: Sorghum; experiment: as above; set-up: key: 1=complete damage; 9=no effect; Ratings of 1 to 4 (in particular 1 to 3) mean a good to very good herbicidal action; conditions: 3- to 6-leaf stage, 500 g of ai/ha, 3 weeks after application, scale 1-9
Experimental: as §1, with “500” for “250”, “plants: Alopecurus (Alo),” for “plants:”, “(Set), Panicum (Pan), Sorghum (Sor), Digitaria (Dig), Echinocloa (Ech) and Brachiaria (Bra).” for “(Set).”

[8] = test system: Setaria; experiment: as above; set-up: key: 1=complete damage; 9=no effect; Ratings of 1 to 4 (in particular 1 to 3) mean a good to very good herbicidal action; conditions: 3- to 6-leaf stage, 500 g of ai/ha, 3 weeks after application, scale 1-9
Experimental: as §1, with “500” for “250”, “plants: Alopecurus (Alo),” for “plants:”, “(Set), Panicum (Pan), Sorghum (Sor), Digitaria (Dig), Echinocloa (Ech) and Brachiaria (Bra).” for “(Set).”

[9] = test system: Avena; experiment: as above; set-up: key: 1=complete damage; 9=no effect; Ratings of 1 to 4 (in particular 1 to 3) mean a good to very good herbicidal action; conditions: 3- to 6-leaf stage, 500 g of ai/ha, 3 weeks after application, scale 1-9
Experimental: as §1, with “500” for “250”, “plants: Alopecurus (Alo),” for “plants:”, “(Set), Panicum (Pan), Sorghum (Sor), Digitaria (Dig), Echinocloa (Ech) and Brachiaria (Bra).” for “(Set).”

[10] = test system: Echinocloa; experiment: as above; set-up: key: 1=complete damage; 9=no effect; Ratings of 1 to 4 (in particular 1 to 3) mean a good to very good herbicidal action; conditions: 3- to 6-leaf stage, 500 g of ai/ha, 3 weeks after application, scale 1-9
Experimental: as §1, with “500” for “250”, “plants: Alopecurus (Alo),” for “plants:”, “(Set), Panicum (Pan), Sorghum (Sor), Digitaria (Dig), Echinocloa (Ech) and Brachiaria (Bra).” for “(Set).”

[11] = test system: Digitaria; experiment: as above; set-up: key: 1=complete damage; 9=no effect; Ratings of 1 to 4 (in particular 1 to 3) mean a good to very good herbicidal action; conditions: 3- to 6-leaf stage, 500 g of ai/ha, 3 weeks after application, scale 1-9
Experimental: as §1, with “500” for “250”, “plants: Alopecurus (Alo),” for “plants:”, “(Set), Panicum (Pan), Sorghum (Sor), Digitaria (Dig), Echinocloa (Ech) and Brachiaria (Bra).” for “(Set).”

[12] = test system: Lolium; experiment: Example B1: pre-emergence herbicidal action, comparison with prior art; set-up: key: 1=complete damage; 9=no effect; Ratings of 1 to 4 (in particular 1 to 3) mean a good to very good herbicidal action; conditions: 500 g of ai/ha, 3 weeks after application, scale 1-9
Excerpt: (§2) Monocotyledonous and dicotyledonous weeds are sown in standard soil in plastic pots. Immediately after sowing, the test substances are applied (500 l of water/ha) as an aqueous suspension (prepared using a 25% wettable powder (Example F3, b)) or as an emulsion (prepared using a 25% emulsion concentrate (Example F1, c)). The application rate is 500 g of active substance/ha. The test plants are subsequently grown under optimum conditions in a greenhouse. 3 weeks after the application, evaluation is carried out using a nine-level scale of ratings (1=complete damage, 9=no effect). Ratings of 1 to 4 (in particular 1 to 3) mean a good to very good herbicidal action. Test plants: Alopecurus (Alo), Avena (Ave), Lolium (Lot), Setaria (Set), Panicum (Pan), Sorghum (Sor), Digitaria (Dig), Echinocloa (Ech) and Brachiaria (Bra).

[13] = test system: Panicum; experiment: as above; set-up: key: 1=complete damage; 9=no effect; Ratings of 1 to 4 (in particular 1 to 3) mean a good to very good herbicidal action; conditions: 500 g of ai/ha, 3 weeks after application, scale 1-9
Excerpt: as §2

[14] = test system: Sorghum; experiment: as above; set-up: key: 1=complete damage; 9=no effect; Ratings of 1 to 4 (in particular 1 to 3) mean a good to very good herbicidal action; conditions: 500 g of ai/ha, 3 weeks after application, scale 1-9
Excerpt: as §2

[15] = test system: Setaria; experiment: as above; set-up: key: 1=complete damage; 9=no effect; Ratings of 1 to 4 (in particular 1 to 3) mean a good to very good herbicidal action; conditions: 500 g of ai/ha, 3 weeks after application, scale 1-9
Excerpt: as §2

[16] = test system: Echinocloa; experiment: as above; set-up: key: 1=complete damage; 9=no effect; Ratings of 1 to 4 (in particular 1 to 3) mean a good to very good herbicidal action; conditions: 500 g of ai/ha, 3 weeks after application, scale 1-9
Excerpt: as §2

[17] = test system: Alopecurus; experiment: Example B2: post-emergence herbicidal action, comparison with prior art; conditions: 3- to 6-leaf stage, 500 g of ai/ha, 3 weeks after application, scale 1-9
Experimental: as §1, with “500” for “250”, “plants: Alopecurus (Alo),” for “plants:”, “(Set), Panicum (Pan), Sorghum (Sor), Digitaria (Dig), Echinocloa (Ech) and Brachiaria (Bra).” for “(Set).”

[18] = test system: Brachiaria; experiment: Example B1: pre-emergence herbicidal action, comparison with prior art; conditions: 500 g of ai/ha, 3 weeks after application, scale 1-9
Excerpt: as §2

[19] = test system: Avena; experiment: as above; conditions: 500 g of ai/ha, 3 weeks after application, scale 1-9
Excerpt: as §2

[20] = test system: Alopecurus; experiment: as above; conditions: 500 g of ai/ha, 3 weeks after application, scale 1-9
Excerpt: as §2

[21] = test system: Digitaria; experiment: as above; conditions: 500 g of ai/ha, 3 weeks after application, scale 1-9
Excerpt: as §2

[22] = test system: Lolium; experiment: Example B3: pre-emergence herbicidal action of compounds of the invention; set-up: key: 1=complete damage; 9=no effect; Ratings of 1 to 4 (in particular 1 to 3) mean a good to very good herbicidal action; conditions: 500 g of active substance/ha, 3 weeks after application, scale 1-9
Experimental: as §1, with “pots. Directly after sowing,” for “pots under greenhouse conditions. The test substances are applied at”, “the” for “the 3- to 6-leaf stage of the test plants. The”, “c)). The” for “c)) at an”, “is 500” for “of 250”, “substance/ha. The test plants are subsequently grown under optimum conditions in a greenhouse” for “substance/ha.”

[23] = test system: Setaria; experiment: as above; set-up: key: 1=complete damage; 9=no effect; Ratings of 1 to 4 (in particular 1 to 3) mean a good to very good herbicidal action; conditions: 500 g of active substance/ha, 3 weeks after application, scale 1-9
Experimental: as §1, with “pots. Directly after sowing,” for “pots under greenhouse conditions. The test substances are applied at”, “the” for “the 3- to 6-leaf stage of the test plants. The”, “c)). The” for “c)) at an”, “is 500” for “of 250”, “substance/ha. The test plants are subsequently grown under optimum conditions in a greenhouse” for “substance/ha.”

[24] = test system: Avena; experiment: as above; set-up: key: 1=complete damage; 9=no effect; Ratings of 1 to 4 (in particular 1 to 3) mean a good to very good herbicidal action; conditions: 500 g of active substance/ha, 3 weeks after application, scale 1-9
Experimental: as §1, with “pots. Directly after sowing,” for “pots under greenhouse conditions. The test substances are applied at”, “the” for “the 3- to 6-leaf stage of the test plants. The”, “c)). The” for “c)) at an”, “is 500” for “of 250”, “substance/ha. The test plants are subsequently grown under optimum conditions in a greenhouse” for “substance/ha.”

Structure (SMILES) | Post-emergence action, Lol (rating) [1] | Post-emergence action, Set (rating) [2] | Post-emergence action, Ave (rating) [3] | Pre-emergence action, Lol (rating) [22] | Pre-emergence action, Set (rating) [23] | Pre-emergence action, Ave (rating) [24] | further results
Cc1cc(C)c(-c2c(O)n3n(c2=O)CCOCC3)c(Br)c1 [1.078] | 1 | 4 | 1 | – | – | – | –
Cc1cc(C)c(-c2c(O)n3n(c2=O)CCOCC3)c(C)c1 [1.001] | 1 | 2 | 1 | 1 | 1 | 4 | Post-emergence action, Lol (rating) [4]: 1; Post-emergence action, Bra (rating) [5]: 1; Post-emergence action, Pan (rating) [6]: 1; Post-emergence action, Sor (rating) [7]: 1; Post-emergence action, Set (rating) [8]: 1; Post-emergence action, Ave (rating) [9]: 1; Post-emergence action, Ech (rating) [10]: 1; Post-emergence action, Dig (rating) [11]: 1; Pre-emergence action, Lol (rating) [12]: 1; Pre-emergence action, Pan (rating) [13]: 1; Pre-emergence action, Sor (rating) [14]: 1; Pre-emergence action, Set (rating) [15]: 1; Pre-emergence action, Ech (rating) [16]: 1; Post-emergence action, Alo (rating) [17]: 2; Pre-emergence action, Bra (rating) [18]: 2; Pre-emergence action, Ave (rating) [19]: 4; Pre-emergence action, Alo (rating) [20]: 3; Pre-emergence action, Dig (rating) [21]: 2
CCc1cc(C)cc(CC)c1-c1c(OC(=O)C(C)(C)C)n2n(c1=O)CCOCC2 [1.008] | – | – | – | 1 | 1 | 1 | –
CCc1cc(C)cc(CC)c1-c1c(O)n2n(c1=O)CCOCC2 [Compound No. 1.007] | 1 | 1 | 1 | – | – | – | –
CCc1cc(Br)cc(C)c1-c1c(OC(=O)C(C)(C)C)n2n(c1=O)CCOCC2 [1.085] | 2 | 2 | 1 | – | – | – | –
